The data set is described as follows: Solubility of Pylaklor White Grains S-5 UV indicator in fragrances. The conditions noted are these: for Color change of the solution: solution of the named fragrance with 5 wt. % Pylaklor White Grains S-5.
Setting [1] is: Pylaklor White Grains S-5 at 5 wt. % in the named fragrance (Table 5).
The mark [2] stands for this setting: Pylaklor White Grains S-5 at 5 wt. % in the named aldehyde fragrance (Table 6).

Procedure: The solubility of Pylaklor White Grains S-5 UV indicator was evaluated in difference chemical classes of fragrances at a UV indicator concentration of 5 wt. %. The resulting admixtures were evaluated for UV activity by exposure to UV light (400 nm ±5 nm) using a Rayovac VBUV-B light source and visual observation.
The solubility of Pylaklor White Grains S-5 UV indicator was evaluated in three different aldehyde fragrances at a UV indicator concentration of 5 wt. %. The resulting admixtures were evaluated for UV activity by exposure to UV light (400 nm±5 nm) using a Rayovac VBUV-B light source and visual observation.

For `CCOC(C)=O` [Ethyl acetate], the Soluble entry under setting [1] was “Yes”. As for `CCCCCCC(C=O)=Cc1ccccc1` [Hexyl cinnamic aldehyde], the “Color change of the solution” value is on record as “changed color”. Besides, the Soluble result under setting [1] is “Yes”. As to `CCCCCC1C(=O)CCC1CC(=O)OC` (stereo not shown) [Methyl dihydrojasmonate], under setting [1], the Soluble entry was “Yes”. In the case of `CCCCCCCCCC=O` [Aldehyde C-10 (decanal), decanal], the Soluble result under setting [2] is reported as “Yes”.

In the case of `C=CC(C)(O)CCC=C(C)C` (stereo not shown) [Linalool], the Soluble entry under setting [1] was “Yes”.

Take `O=C/C=C/c1ccccc1` [Cinnamic aldehyde]: the Soluble result under setting [2] is given as “Yes”. With `CC/C=C\CCO` [Cis-3-hexanol], the “Color change of the solution” value is “changed from a straw color to a yellow color”. Also, under setting [1], the Soluble result is “Yes”.

Consider `CCCCCCC1CCC(=O)O1` (stereo not shown) [Gamma-decalactone], for which the Soluble entry under setting [1] is recorded as “Yes”.

For the origin of these results see US20180362893A1, “COMPOSITIONS COMPRISING AN ULTRAVIOLET INDICATOR” (Chemia Corporation, priority 2015, published 2018).
